Measurements taken from patent US9655822B2, “Hydrated lamellar phases or liposomes which contain a fatty monoamine or a cationic polymer which promotes intracellular penetration, and a cosmetic or pharmaceutical composition containing same, as well as a method of screening such a substance” (BASF Beauty Care Solutions France S.A.S., priority 2004, dated 2017).

What was measured:
normal human fibroblasts [1] = experiment: Screening of molecules which stimulate the intracellular penetration of PFB-F incorporated in a liposome; format: cell-based
Method: These molecules are retained in priority. The preparation of the liposomes with primary fatty monoamines of alkyl chain length of between 3 and 18 carbons and the quantification of the intracellular penetration of the fluorescent label are carried out as described in the preceding Example. […] We have thus studied the intracellular penetration of the PFB-F encapsulated in liposomes in the presence of primary fatty monoamines on the one hand, and with secondary fatty monoamines on the other hand. The preparation of the liposomes with primary or secondary fatty amines and the quantification of the intracellular penetration of the fluorescent markers are carried out as described in Example 8.

normal human fibroblasts [2] = experiment: Cell viability in the screening of functionalising molecules; settings: 1% of molecule (25 kDa PEI: 50 μM), 96-well plate
Method: 250 μl of liposomal suspension is added onto cultures of normal human fibroblasts extracted from abdominal plasy and cultivated in a 96-well plate. Each concentration is tested on 6 different wells. The cell viability is evaluated by a test with paranitrophenylphosphate which determines the intracellular alkaline phosphatase activity after three rinses with pH 7.4 phosphate buffer. The percentage of living cells is calculated with respect to a control made without the addition of liposome in the culture well (n=6).
55 molecules are firstly tested in triplicate, in comparison with the 50 μM 25 kDa PEI. The intracellular penetration is quantified after 24 hours of incubation on normal human fibroblasts cultivated in 24-well plates as described in Example 2. The cell viability is estimated in a 96-well plate with 200 μl of liposomal suspension.
The intracellular penetration and the cytotoxicity are evaluated as described in Example 2.

[3] = Transcutaneous permeation on human skin; settings: 0.5% vitamin E in liposomes with 2% quaternised soya solution vs free or liposome without quaternised agent; HPLC, 5 to 24 hours
Method: The diffusion kinetics were quantified by spectrofluorimetry from 3 to 24 hours. The release was quantified after 24 additional hours. The storage was also evaluated last. The number of samples tested is 5 per condition.
The diffusion kinetics were quantified by high performance liquid chromatography from 5 to 24 hours. The release was quantified after 24 additional hours. The storage was also evaluate last.

[4] = 1% of molecule (25 kDa PEI: 50 μM), 5% soya lecithin, 0.01% PFB-F, 24 hours

Row | Molecule | Stimulation factor (normal human fibroblasts [1]; [4]) | Stimulation factor (normal human fibroblasts [1]; by number of alkyl chains of the amine (chain length), as in Example 8) | Stimulation factor (normal human fibroblasts [1]; primary monoamine with a single alkyl fatty chain, by number of carbons, as in Example 8) | Viability (normal human fibroblasts [2]) [%] | diffusion, release and storage (in words) [3]
1 | CCCCN [n-Butylamine C4, n-Butylamine] | 1.4 | 1.7 | 1.4 |  | 
2 | C[N+](C)(CCO)CCCNC(=O)[C@H](O)[C@@H](O)[C@H](O)[C@H](O)CO.[Cl-] [Quaternium 22] | 2 |  |  | 98.9 | 
3 | Quaternium 26 | 30.9 |  |  | 59.2 | 
4 | vitamin E |  |  |  |  | significantly stimulates the diffusion, the release and the storage
5 | Quaternium 70 and PG | −0.2 |  |  | 63.9 | 
6 | Stearamidopropyl cetearyl dimonium tosylate and PG | 13.1 |  |  | 93.2 | 
